Values quoted from earlier work, collected in patent US20220313582A1, “METHOD FOR DYEING KERATINOUS MATERIAL, COMPRISING THE USE OF AN ORGANOSILICON COMPOUND, A CHROMOPHORIC COMPOUND AND A FILM-FORMING POLYMER II” (Henkel AG & Co. KGaA, priority 2019, published 2022).

Conditions: for solubility in water: 25° C.

SMILES | solubility in water | solubility in water (in words) (at 25° C.)
O=S(=O)([O-])c1ccc(N=Nc2c(O)ccc3ccccc23)cc1.[Na+] [Acid Orange 7, sodium salt of 4-[(2-hydroxy-1-naphthyl)azo]benzene sulphonate] | more than 7 g/L | 
Nc1cc(S(=O)(=O)[O-])cc2cc(S(=O)(=O)[O-])c(N=Nc3ccccc3)c(O)c12.[Na+].[Na+] [Acid Red 33, disodium salt of 5-amino-4-hydroxy-3-(phenylazo)-naphthalene-2,7-disulphonate] | 2.5 g/L | 
O=C([O-])c1c(Cl)c(Cl)c(Cl)c(Cl)c1-c1c2c(Br)cc(=O)c(Br)c-2oc2c(Br)c(O)cc(Br)c12.O=C([O-])c1c(Cl)c(Cl)c(Cl)c(Cl)c1-c1c2c(Br)cc(=O)c(Br)c-2oc2c(Br)c(O)cc(Br)c12.[Na+].[Na+] [Acid Red 92, disodium salt of 3,4,5,6-tetrachloro-2-(1,4,5,8-tetrabromo-6-hydroxy-3-oxoxanthen-9-yl)benzoic acid] | greater than 10 g/L | 
O=C([O-])C1=NN(c2ccc(S(=O)(=O)[O-])cc2)C(=O)C1N=Nc1ccc(S(=O)(=O)[O-])cc1.[Na+].[Na+].[Na+] (stereo not shown) [Acid Yellow 23, trisodium salt of 4,5-dihydro-5-oxo-1-(4-sulfophenyl)-4-((4-sulfophenyl)azo)-1H-pyrazole-3-carboxylic acid] |  | highly soluble
